From patent publication US20040235012A1, “Method of detecting antibiotic resistance in microorganisms” (priority 2003, published 2004)

Experiments:
[1] = test system: S. aureus strains; experiment: E-Test MIC of oxacillin; type: cell-based; conditions: Staphylococcus aureus
[2] = test system: low-level resistant strains (MRSA); conditions: cited from earlier work

Cc1onc(-c2ccccc2)c1C(=O)N[C@@H]1C(=O)N2[C@@H]1SC(C)(C)[C@@H]2C(=O)O [OX, oxacillin]
MIC ([1]; strain 31 (mecA −, PBP2 −)): 0.25 µg/mL | MIC ([1]; strain 34 (mecA +, PBP2 +)): 16 µg/mL | MIC ([1]; strain 2325 (mecA −, PBP2 −)): 0.19 µg/mL | MIC ([1]; strain 3421 (mecA +)): > 4 µg/mL | MIC ([1]; strain 3424 (mecA −, PBP2 −)): 1.5 µg/mL | MIC ([1]; strain 3425 (mecA −, PBP2 −)): 0.38 µg/mL | MIC ([1]; strain 5594 (mecA +, PBP2 +)): 0.38 µg/mL | MIC ([1]; strain 5595 (mecA +, PBP2 +)): 0.5 µg/mL | MIC ([1]; strain 5596 (mecA +, PBP2 +)): 0.5 µg/mL | MIC ([1]; strain 5597 (mecA +, PBP2 +)): 32 µg/mL | MIC ([1]; strain 5598 (mecA +, PBP2 +)): 32 µg/mL | MIC ([1]; strain 5599 (mecA +, PBP2 +)): 16 µg/mL | MIC ([1]; strain T775 (mecA +, PBP2 +)): 8 µg/mL | MIC ([1]; strain T2109 (mecA +, PBP2 +)): 32 µg/mL | MIC ([1]; strain T2110 (mecA +, PBP2 +)): 8 µg/mL | MIC ([1]; strain T2130 (mecA +, PBP2 +)): 32 µg/mL | MIC ([1]; strain T4031 (mecA +, PBP2 +)): 6 µg/mL | MIC ([1]; strain T4033 (mecA +, PBP2 +)): 1.5 µg/mL | MIC ([1]; strain T4035 (mecA +, PBP2 +)): 8 µg/mL | oxacillin MIC of low-level resistant strains, at or just above the susceptible breakpoint [2]: 4 to 8 µg/mL
